Assay results published in patent US12162819B2, “Ionizable lipid compounds” (Beijing Jitai Pharmaceutical Technology Co., Ltd., priority 2022, dated 2024).

Key:
[1] = Particle size and PDI of lipid nanoparticles by dynamic light scattering; format: physicochemical; conditions: lipid nanoparticle with the cationic lipid, cholesterol, DSPC, DMG-PEG2000 (50/38.5/10/1.5 mol%), luciferase mRNA, N/P 6
Experimental: (§1) Lipid nanoparticles were prepared by (1) dissolving and mixing ionizable lipid compounds, cholesterol, phospholipids and polyethylene glycolated lipids in ethanol at (molar percentages) 50%, 38.5%, 10% and 1.5%, respectively; (2) dissolving the mRNA active ingredient in 25 mM sodium acetate solution (pH=4.5); (3) using an automated high-throughput microfluidic system to mix the organic phase containing the lipid mixture and the aqueous phase containing the mRNA component in the flow ratio range of 1:1 to 1:4 at a mixing speed of 10 mL/min to 18 mL/min; (4) the prepared lipid nanoparticles (N/P ratio of 6) were diluted with phosphate buffer solution and the nanoparticle solutions were ultrafiltered to the original preparation volume using ultrafiltration tubes (purchased from Millipore) with a cut-off molecular weight of 30 kDa; and (5) the obtained nanoparticles were filtered through a sterile 0.2 μm filter membrane and then stored in a sealed glass vial at low temperature.
(§2) The particle size and particle size dispersity index (PDI) of the prepared lipid nanoparticles were measured using a Zetasizer Pro (purchased from Malvern Instruments Ltd) and a DynaPro NanoStar (purchased from Wyatt) dynamic light scattering instrument. The degree of RNA encapsulation by lipid nanoparticles was characterized by the Encapsulation Efficiency %, which reflects the degree of binding of lipid nanoparticles to RNA fragments. This parameter was measured by the method of Quant-It™ RiboGreen RNA Assay (purchased from Invitrogen). Lipid nanoparticle samples were diluted in TE buffer (10 mM Tris-HCl, 1 mM EDTA, pH=7.5). A portion of the sample solution was removed, to which 0.5% Triton (Triton X-100) was added, and then allowed to stand at 37° C. for 30 minutes. Immediately after the addition of RIBOGREEN® reaction solution, the fluorescence values were read on a Varioskan LUX multifunctional microplate reader (purchased from Thermofisher) at 485 nm for absorption and 528 nm for emission to give the encapsulation efficiency values.

[2] = Encapsulation efficiency of lipid nanoparticles, Quant-It RiboGreen RNA Assay; format: physicochemical; conditions: lipid nanoparticle with the cationic lipid, luciferase mRNA
Experimental: as §1, §2

[3] = tested on: human embryonic kidney cells 293 (HEKi293T cells); assay: In vitro delivery of luciferase mRNA nanoparticles, luciferase expression (RLU); format: cell-based; conditions: HEK293T cells, LNP with luciferase mRNA, 24 h
Experimental: as §1
(§3) The delivery effect and safety of nanoparticles encapsulated with luciferase mRNA were evaluated at the cellular level in vitro. The cells used in the assay were human embryonic kidney cells 293 (HEKi293T cells) cultured in DMEM (Dulbecco's Modified Eagle Medium) (purchased from Thermo Fisher) containing […] fetal bovine serum and […] penicillin-streptomycin double antibiotics at a indoor temperature of 37° C. and a CO2 concentration of […]. The cells were uniformly dispersed and spread in 48-well plates, and incubated in the incubator for 24 h. Then a solution of the lipid nanoparticles encapsulated with luciferase mRNA were added. After 24 h, the cells were lysed, and the intracellular expression intensity and relative light units (RLU) of luciferase in each type of lipid nanoparticles were measured with a luciferase detection reagent (purchased from Promega). The higher the intensity of expression, the higher the delivery efficiency of the lipid material at the cellular level. Meanwhile, CCK-8 reagent (purchased from DOJINDO) was used in cytotoxicity testing for the parallel lipid nanoparticle-treated cell groups after 24 hours. In the test, the group of cells to which only PBS was added was used as a negative control. The procedure was as follows: after the addition of CCK-8 solution, the cells were left to stand in an incubator at 37° C. for 4 h. The absorbance values were read on a multifunctional microplate reader at an absorbance band of 450 nm. The ratio of the absorbance value of the nanoparticle-treated cells to that of the negative control was used as a characterization parameter for cell viability.

[4] = tested on: human embryonic kidney cells 293 (HEKi293T cells); assay: CCK-8 cytotoxicity testing of lipid nanoparticle-treated cells; format: cell-based; design: concentration or dose not given beside the values; conditions: HEK293T cells, LNP-treated 24 h, CCK-8, ratio to PBS negative control
Experimental: as §1, §3

[5] = tested on: C57BL/6 mice; assay: In vivo bioluminescence assay of lipid nanoparticles encapsulated with luciferase mRNA in mice; conditions: C57BL/6 mice, intravenous, single dose 0.5 mg/kg luciferase mRNA in LNP, 6 h after administration, group mean
Experimental: as §1
The delivery effect and safety of nanoparticles encapsulated with luciferase mRNA (Trilink, L-7202) in mice were evaluated. The test mice were SPF-grade C57BL/6 mice, female, 6-8 weeks old, weighing 18-22 g, and were purchased from SPF (Beijing) Biotechnology Co., Ltd. All animals were acclimatized for more than 7 days prior to the experiment, and had free access to food and water during the experiment. The conditions include alternating light and dark for 12/12 h, the indoor temperature of 20-26° C. and the humidity of 40-70%. The mice were randomly grouped. The lipid nanoparticles encapsulated with luciferase mRNA prepared above were injected into mice by intravenous administration at a single dose of 0.5 mg/kg mRNA, and the mice were subjected to in vivo bioluminescence assay using a Small Animal In Vivo Imaging System (IVIS LUMINA III, purchased from PerkinElmer) at 6 h after administration. The assay was performed as follows: D-luciferin solution was prepared in saline at a concentration of 15 mg/mL, and each mouse was given the substrate by intraperitoneal injection. At ten minutes after administration of the substrate, the mice were anesthetized in an anesthesia chamber with isoflurane at a concentration of 2.5%. The anesthetized mice were placed in IVIS for fluorescence imaging, and data acquisition and analysis were performed on the concentrated distribution area of fluorescence.
The in vivo delivery efficiency of lipid nanoparticle carriers was expressed as the mean values of fluorescence intensity and total photon count in different animals within the same subject group, as shown in Table 5. Higher values of fluorescence intensity and total photon count indicate higher in vivo delivery efficiency of this mRNA fragment by lipid nanoparticles. The lipid nanoparticles containing the cationic lipids of the present disclosure have good in vivo delivery efficiency.

Row | Structure (SMILES) | Particle size (nm) [1] [nm] | Particle size dispersity (PDI) [1] | Encapsulation efficiency (%) [2] [%] | Luciferase luminescence (RLU) [3] [RLU] | Cell viability (%) [4] [%] | Total photon count in vivo at 6 hours after administration (Total Flux) [5]
1 | CCCCCCCCCOC(=O)C(C)(C)CCCCCC(CCCCCC(C)(C)C(=O)OCCCCCCCCC)OC(=O)CCCCCN(C)C [Compound 32] | 116.61 | 0.07 | 99.02 | 6.99E+06 | 96.25 | 
2 | CCCCCCCCCSC(=O)C(C)(C)CCCCCC(CCCCCC(C)(C)C(=O)SCCCCCCCCC)OC(=O)CCCN(C)C [Compound 37] | 92.18 | 0.03 | 89.07 | 1.04E+07 | 97.48 | 
3 | CC(C)CCCCCCCOC(=O)CCC(C)(C)CCCC(CCCC(C)(C)CCC(=O)OCCCCCCCC(C)C)OC(=O)CCCN(C)C [Compound 127] | 83.01 | 0.05 | 62.35 |  |  | 3.59E+10

Second part, led by results:

Row | Particle size (nm) [1] [nm] | Particle size dispersity (PDI) [1] | Encapsulation efficiency (%) [2] [%] | Structure (SMILES) | Luciferase luminescence (RLU) [3] [RLU] | Cell viability (%) [4] [%] | Total photon count in vivo at 6 hours after administration (Total Flux) [5]
4 | 96.83 | 0.04 | 95.62 | CCCCC/C=C\C/C=C\CCCCCCCCC(CCCCCCCC/C=C\C/C=C\CCCCC)OC(=O)CCCN(C)C [DLin-MC3-DMA, reference compound] | 2.95E+06 | 97.84 | 
5 | 118.19 | 0.07 | 83.29 | CCCCCCCCOC(=O)C(C)(C)CCCCCC(CCCCCC(C)(C)C(=O)OCCCCCCCC)OC(=O)C1CCN(C)CC1 [Compound 100] | 1.98E+06 | 104.67 | 
6 | 104.27 | 0.05 | 93.91 | CCCCCCCCCOC(=O)C(C)(C)CCCCCC(CCCCCC(C)(C)C(=O)SCCCCCCCCC)OC(=O)CCCN(C)C (centres unmarked) [Compound 41] | 1.23E+07 | 104.91 | 
